Assay results: patent publication US9000186B2, “Ring-fused heterocyclic derivative” (Kyowa Hakko Kirin Co., Ltd., priority 2011, dated 2015)
Read-outs that look alike come from different tables or passages of the source.

Target: T1, human Cav3.2 T-type Ca2+ channel (Homo sapiens, UniProt O95180)
T1 construct: expressed in transfected cells; host or cells: KJMGER8 cells (Namalwa cell-derived cell line)
Experiment: Inhibitory effect for intracellular calcium response via Cav3.2 T-type Ca2+ channels (FLIPR Calcium 3 Assay Kit)
Format: cell-based

[1] = human Cav3.2-expressing KJMGER8 cells (Namalwa-derived), calcium response induced by 5 mmol/L CaCl2, normalised to 3 μmol/L mibefradil, read-out: IC50 for the human Cav3.2 T-type Ca2+ current

T1 sequence (O95180 whole entry): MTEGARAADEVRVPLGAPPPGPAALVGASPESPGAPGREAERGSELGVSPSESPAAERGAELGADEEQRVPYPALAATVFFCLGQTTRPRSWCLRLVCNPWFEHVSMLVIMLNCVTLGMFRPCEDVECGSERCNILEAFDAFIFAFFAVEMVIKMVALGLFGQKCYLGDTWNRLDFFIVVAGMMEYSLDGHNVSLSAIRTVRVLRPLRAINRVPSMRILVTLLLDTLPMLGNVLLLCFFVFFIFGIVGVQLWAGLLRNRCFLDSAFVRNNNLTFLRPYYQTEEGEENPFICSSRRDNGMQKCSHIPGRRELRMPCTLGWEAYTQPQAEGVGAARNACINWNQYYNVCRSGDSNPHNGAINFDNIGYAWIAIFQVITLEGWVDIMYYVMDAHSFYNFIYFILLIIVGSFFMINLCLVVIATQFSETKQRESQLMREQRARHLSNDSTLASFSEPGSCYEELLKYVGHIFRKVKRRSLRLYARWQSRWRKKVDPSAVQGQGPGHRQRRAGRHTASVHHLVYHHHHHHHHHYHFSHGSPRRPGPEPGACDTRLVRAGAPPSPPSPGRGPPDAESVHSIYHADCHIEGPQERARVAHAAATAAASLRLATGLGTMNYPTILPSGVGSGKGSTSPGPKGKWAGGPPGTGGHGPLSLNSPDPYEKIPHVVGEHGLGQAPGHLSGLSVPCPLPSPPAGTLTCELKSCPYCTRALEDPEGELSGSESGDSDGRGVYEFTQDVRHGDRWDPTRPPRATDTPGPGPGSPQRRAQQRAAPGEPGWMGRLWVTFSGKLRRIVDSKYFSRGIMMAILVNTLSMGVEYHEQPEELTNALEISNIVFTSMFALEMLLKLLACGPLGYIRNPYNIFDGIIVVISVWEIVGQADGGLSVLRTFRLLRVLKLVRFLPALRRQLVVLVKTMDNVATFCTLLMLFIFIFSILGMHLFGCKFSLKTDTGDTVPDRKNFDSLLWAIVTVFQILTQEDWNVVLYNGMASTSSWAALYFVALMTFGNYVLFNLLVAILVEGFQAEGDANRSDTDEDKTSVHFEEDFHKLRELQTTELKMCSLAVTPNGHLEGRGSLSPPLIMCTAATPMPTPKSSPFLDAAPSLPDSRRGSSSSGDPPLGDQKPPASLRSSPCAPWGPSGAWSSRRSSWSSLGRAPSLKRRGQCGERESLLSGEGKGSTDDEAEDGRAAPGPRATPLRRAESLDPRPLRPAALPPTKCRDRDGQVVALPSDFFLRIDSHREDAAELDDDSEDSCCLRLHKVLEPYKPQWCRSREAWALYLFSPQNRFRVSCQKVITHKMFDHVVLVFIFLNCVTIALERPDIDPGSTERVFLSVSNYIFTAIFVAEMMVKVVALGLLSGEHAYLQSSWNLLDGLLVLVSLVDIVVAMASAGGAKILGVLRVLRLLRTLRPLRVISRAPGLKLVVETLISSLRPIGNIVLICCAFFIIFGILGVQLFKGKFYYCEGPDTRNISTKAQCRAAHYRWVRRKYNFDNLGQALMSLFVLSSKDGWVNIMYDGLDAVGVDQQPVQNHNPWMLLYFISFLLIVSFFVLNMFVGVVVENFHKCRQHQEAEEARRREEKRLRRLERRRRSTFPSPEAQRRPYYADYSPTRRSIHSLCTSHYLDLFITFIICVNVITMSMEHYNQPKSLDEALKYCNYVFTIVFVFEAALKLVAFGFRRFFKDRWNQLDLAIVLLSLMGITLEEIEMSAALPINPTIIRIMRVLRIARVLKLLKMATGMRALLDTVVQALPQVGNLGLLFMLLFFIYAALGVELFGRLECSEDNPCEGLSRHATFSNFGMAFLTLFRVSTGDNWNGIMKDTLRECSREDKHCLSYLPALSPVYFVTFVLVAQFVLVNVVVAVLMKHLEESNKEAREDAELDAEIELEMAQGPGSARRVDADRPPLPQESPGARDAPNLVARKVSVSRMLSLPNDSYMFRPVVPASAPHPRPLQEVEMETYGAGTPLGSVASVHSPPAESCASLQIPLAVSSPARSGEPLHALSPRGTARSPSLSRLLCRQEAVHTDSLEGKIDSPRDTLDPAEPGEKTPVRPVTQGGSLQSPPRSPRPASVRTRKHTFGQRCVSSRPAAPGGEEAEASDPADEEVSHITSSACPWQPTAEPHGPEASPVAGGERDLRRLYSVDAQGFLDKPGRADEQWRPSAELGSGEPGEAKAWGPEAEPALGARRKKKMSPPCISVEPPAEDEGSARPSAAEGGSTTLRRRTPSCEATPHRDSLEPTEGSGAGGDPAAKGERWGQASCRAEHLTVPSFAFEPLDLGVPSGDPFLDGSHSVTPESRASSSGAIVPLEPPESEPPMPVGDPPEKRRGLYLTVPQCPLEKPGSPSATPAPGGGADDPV

Row | Compound | IC50 [1] [µM] | IC50 [µM]
1 | COC1(CNC(=O)c2cc(C)n3c(CC4CCC(F)(F)CC4)c(C(F)(F)F)nc3c2)CCOCC1 [Compound 86, 3-(4,4-Difluorocyclohexylmethyl)-N-{(4-methoxytetrahydro-2H-pyran-4-yl)methyl}-5-methyl-2-trifluoromethylimidazo[1,2-a]pyridine-7-carboxamide] | < 0.1 | 
2 | CC(C)(C)NS(=O)(=O)c1c(C(C)(C)C)nc2cc(C(=O)NC3CCOCC3)c(Cl)cn12 [Compound 162, 2-tert-Butyl-3-(N-tert-butylsulfamoyl)-6-chloro-N-(tetrahydro-2H-pyran-4-yl)imidazo[1,2-a]pyridine-7-carboxamide] |  | < 0.1
3 | CN(C)S(=O)(=O)N(C)c1ccn2c(CC3CCCCC3)c(C(C)(C)C)nc2c1 [Compound 20, N-(2-tert-Butyl-3-cyclohexylmethylimidazo[1,2-a]pyridin-7-yl)-N,N′,N′-trimethylsulfamide] |  | < 0.1
4 | CCC1(CNC(=O)c2ccn3c(CC4CCC(F)(F)CC4)c(C(F)(F)F)nc3c2)COC1 [Compound 56, 3-(4,4-Difluorocyclohexylmethyl)-N-{(3-ethyloxetan-3-yl)methyl}-2-trifluoromethylimidazo[1,2-a]pyridine-7-carboxamide] | < 0.1 | 
5 | CC(C)c1nc2cc(C(=O)Nc3ccccc3N)c(Cl)cn2c1S(=O)(=O)N1CC(F)(F)C1 [Compound 149, N-(2-Aminophenyl)-6-chloro-3-(3,3-difluoroazetidin-1-ylsulfonyl)-2-isopropylimidazo[1,2-a]pyridine-7-carboxamide] | < 0.1 | 
6 | CC(C)c1nc2cc(-c3nc4ccccc4[nH]3)ccn2c1COC1CCCCC1 [Compound 33, 2-(3-Cyclohexyloxymethyl-2-isopropylimidazo[1,2-a]pyridin-7-yl)-1H-benzimidazole] | < 0.1 | 
7 | Cc1cc(C(=O)NCC2(CO)CCOCC2)cc2nc(C(F)(F)F)c(CC3CCC(F)(F)CC3)n12 [Compound 85, 3-(4,4-Difluorocyclohexylmethyl)-N-[{4-(hydroxymethyl)tetrahydro-2H-pyran-4-yl}methyl]-5-methyl-2-trifluoromethylimidazo[1,2-a]pyridine-7-carboxamide] |  | < 0.1
8 | CC(C)(c1nc2cc(C(=O)NC3CCOCC3)c(Cl)cn2c1CC1CCC(F)(F)CC1)C(F)(F)F [Compound 115, 6-Chloro-3-(4,4-difluorocyclohexylmethyl)-N-(tetrahydro-2H-pyran-4-yl)-2-(1,1,1-trifluoro-2-methylpropan-2-yl)imidazo[1,2-a]pyridine-7-carboxamide] |  | < 0.1
9 | Cc1cn2c(S(=O)(=O)N3CC4(COC4)C3)c(C(C)C)nc2cc1C(=O)Nc1ccccc1 [Compound 166, 3-(2-Oxa-6-azaspiro[3.3]heptan-6-ylsulfonyl)-2-isopropyl-6-methyl-N-phenylimidazo[1,2-a]pyridine-7-carboxamide] | < 0.1 | 
10 | O=C(NOC1CCOCC1)c1cc2nc(C(F)(F)F)c(CC3CCC(F)(F)CC3)n2cc1Cl [Compound 181, 6-Chloro-3-(4,4-difluorocyclohexylmethyl)-N-(tetrahydro-2H-pyran-4-yloxy)-2-trifluoromethylimidazo[1,2-a]pyridine-7-carboxamide] | < 0.1 | 
11 | CC(C)c1nc2cc(C(=O)Nc3ccccc3)ccn2c1S(=O)(=O)NC(C1CC1)C1CC1 [Compound 129, 3-{N-(Dicyclopropylmethyl)sulfamoyl}-2-isopropyl-N-phenylimidazo[1,2-a]pyridine-7-carboxamide] | < 0.1 | 
12 | Cc1cc(C(=O)NCC2(F)CCOCC2)cc2nc(C(F)(F)F)c(CC3CCC(F)(F)CC3)n12 [Compound 87, 3-(4,4-Difluorocyclohexylmethyl)-N-{(4-fluorotetrahydro-2H-pyran-4-yl)methyl}-5-methyl-2-trifluoromethylimidazo[1,2-a]pyridine-7-carboxamide] |  | < 0.1
13 | O=C(NCC1CCOC1)c1cc(Cl)n2c(CC3CCC(F)(F)CC3)c(C(F)(F)F)nc2c1 (stereo not drawn) [Compound 106, 5-Chloro-3-(4,4-difluorocyclohexylmethyl)-N-{(tetrahydrofuran-3-yl)methyl}-2-trifluoromethylimidazo[1,2-a]pyridine-7-carboxamide] |  | < 0.1
14 | CC(C)c1nc2cc(C(=O)NOCc3ccccc3)ccn2c1S(=O)(=O)N1CC(F)(F)C1 [Compound 135, N-(Benzyloxy)-3-(3,3-difluoroazetidin-1-ylsulfonyl)-2-isopropylimidazo[1,2-a]pyridine-7-carboxamide] | < 0.1 | 
15 | COC(C)(C)c1nc2cc(C(=O)NC3CCOCC3)cc(C)n2c1CC1CCC(F)(F)CC1 [Compound 97, 3-(4,4-Difluorocyclohexylmethyl)-2-(2-methoxypropan-2-yl)-5-methyl-N-(tetrahydro-2H-pyran-4-yl)imidazo[1,2-a]pyridine-7-carboxamide] |  | < 0.1
16 | Cc1cc(NC(=O)c2cc3nc(C(C)C)c(S(=O)(=O)NC(C)(C)C)n3cc2Cl)on1 [Compound 157, 3-(N-tert-Butylsulfamoyl)-6-chloro-2-isopropyl-N-(3-methylisooxazol-5-yl)imidazo[1,2-a]pyridine-7-carboxamide] | < 0.1 | 
17 | CC(C)c1nc2cc(-c3nc4ccccc4[nH]3)c(Cl)cn2c1S(=O)(=O)N1CC(F)(F)C1 [Compound 170, 2-{6-Chloro-3-(3,3-difluoroazetidin-1-ylsulfonyl)-2-isopropylimidazo[1,2-a]pyridin-7-yl}-1H-benzimidazole] | < 0.1 | 

Row | Compound | IC50 [1] [µM] | IC50 [µM]
18 | CC(C)c1nc2cc(NC(=O)c3ccccc3)ccn2c1COC1CCCCC1 [Compound 28, N-(3-Cyclohexyloxymethyl-2-isopropylimidazo[1,2-a]pyridin-7-yl)benzamide] | < 0.1 | 
19 | Cc1cc(C(=O)NCC2COCCOC2)cc2nc(C(F)(F)F)c(CC3CCC(F)(F)CC3)n12 [Compound 93, N-{(1,4-Dioxepan-6-yl)methyl}-3-(4,4-difluorocyclohexylmethyl)-5-methyl-2-trifluoromethylimidazo[1,2-a]pyridine-7-carboxamide] | < 0.1 | 
20 | O=C(Nc1ccccc1)c1ccn2c(S(=O)(=O)N3CC(F)(F)C3)c(C3CC3)nc2c1 [Compound 138, 2-Cyclopropyl-3-(3,3-difluoroazetidin-1-ylsulfonyl)-N-phenylimidazo[1,2-a]pyridine-7-carboxamide] |  | < 0.1
21 | O=C(NC1CC=CCC1)c1ccn2c(CC3CCC(F)(F)CC3)c(C(F)(F)F)nc2c1 (stereo not drawn) [Compound 180, N-(Cyclohex-3-enyl)-3-(4,4-difluorocyclohexylmethyl)-2-trifluoromethylimidazo[1,2-a]pyridine-7-carboxamide] |  | < 0.1
22 | CC(C)CC(=O)N(C)c1ccn2c(CC3CCCCC3)c(C(C)(C)C)nc2c1 [Compound 19, N-(2-tert-Butyl-3-cyclohexylmethylimidazo[1,2-a]pyridin-7-yl)-N,3-dimethylbutanamide] |  | < 0.1
23 | CC(C)(C)c1nc2cc(C(=O)NCc3ccccc3)ccn2c1CC1CCCCC1 [Compound 16, N-Benzyl-2-tert-butyl-3-cyclohexylmethylimidazo[1,2-a]pyridine-7-carboxamide] |  | < 0.1
24 | Cc1c(C(=O)Nc2ccncc2)ccn2c(CC3CCCCC3)c(C(C)(C)C)nc12 [Compound 42, 2-tert-Butyl-3-cyclohexylmethyl-8-methyl-N-(pyridin-4-yl)imidazo[1,2-a]pyridine-7-carboxamide] |  | < 0.1
25 | CC(C)c1nc2cc(C(=O)Nc3ccccc3)ccn2c1S(=O)(=O)N(C)c1ccccc1 [Compound 132, 2-Isopropyl-3-(N-methyl-N-phenylsulfamoyl)-N-phenylimidazo[1,2-a]pyridine-7-carboxamide] | < 0.1 | 
26 | O=C(NC1CCOCC1)c1ccn2c(CC3CCC(F)(F)CC3)c(C3(C(F)(F)F)CC3)nc2c1 [Compound 65, 3-(4,4-Difluorocyclohexylmethyl)-N-(tetrahydro-2H-pyran-4-yl)-2-(1-trifluoromethylcyclopropyl)imidazo[1,2-a]pyridine-7-carboxamide] |  | < 0.1
27 | CS(=O)(=O)c1nc2cc(C(=O)Nc3ccccc3)ccn2c1S(=O)(=O)N1CCC(F)(F)CC1 [Compound 143, 3-(4,4-Difluoropiperidin-1-ylsulfonyl)-2-(methylsulfonyl)-N-phenylimidazo[1,2-a]pyridine-7-carboxamide] | < 0.1 | 
28 | CC1(CNC(=O)c2ccn3c(CC4CCC(F)(F)CC4)c(C(F)(F)F)nc3c2)CCCO1 (stereo not drawn) [Compound 57, 3-(4,4-Difluorocyclohexylmethyl)-N-{(2-methyltetrahydrofuran-2-yl)methyl}-2-trifluoromethylimidazo[1,2-a]pyridine-7-carboxamide] | < 0.1 | 
29 | CC(C)c1nc2cc(C(=O)N3CCc4ccccc43)ccn2c1S(=O)(=O)N1CCCCC1 [Compound 136, Indolin-1-yl{2-isopropyl-3-(piperidin-1-ylsulfonyl)imidazo[1,2-a]pyridin-7-yl}methanone] |  | < 0.1
30 | CC(C)c1nc2cc(C(=O)Nc3ccccc3)ccn2c1S(=O)(=O)N(C(C)C)C1CC1 [Compound 130, 3-(N-Cyclopropyl-N-isopropylsulfamoyl)-2-isopropyl-N-phenylimidazo[1,2-a]pyridine-7-carboxamide] |  | < 0.1
31 | COCC1(CNC(=O)c2ccn3c(CC4CCC(F)(F)CC4)c(C(F)(F)F)nc3c2)CCOCC1 [Compound 59, 3-(4,4-Difluorocyclohexylmethyl)-N-[{4-(methoxymethyl)tetrahydro-2H-pyran-4-yl}methyl]-2-trifluoromethylimidazo[1,2-a]pyridine-7-carboxamide] |  | < 0.1
32 | Cc1cc(C(=O)NCC2(C)COC2)cc2nc(C(F)(F)F)c(CC3CCC(F)(F)CC3)n12 [Compound 95, 3-(4,4-Difluorocyclohexylmethyl)-5-methyl-N-{(3-methyloxetan-3-yl)methyl}-2-trifluoromethylimidazo[1,2-a]pyridine-7-carboxamide] |  | < 0.1
33 | Cc1cc(C(=O)Nc2ccccc2N)cc2nc(C(F)(F)F)c(CC3CCC(F)(F)CC3)n12 [Compound 68, N-(2-Aminophenyl)-3-(4,4-difluorocyclohexylmethyl)-5-methyl-2-trifluoromethylimidazo[1,2-a]pyridine-7-carboxamide] |  | < 0.1
